From patent US9113629B2, “4-amino-6-(4-substituted-phenyl)-picolinates and 6-amino-2-(4-substituted-phenyl)-pyrimidine-4-carboxylates and their use as herbicides” (DOW AGROSCIENCES LLC, priority 2013, dated 2015)
Like-named read-outs stand apart in the source and are kept apart here.

How the values were obtained:
[1] = system: Key Grass and Sedge Weeds as well as Grass Crops; assay: Post-emergent Test II herbicidal activity (Table 6); assay type: in vivo; settings: post-emergence, 336 h; for pest or weed control at 70 g/ha: 70 g ai/ha; for pest or weed control at 140 g/ha: 140 g ai/ha
In short: (§1)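 Greenhouse post-emergent assay: seedlings (first/second true leaf) in Metro-Mix 360 were sprayed at 187 L/ha at a top rate plus twofold dilutions down to 1/16×; solvent-blank controls were included. Percent visual injury was read at 14 d.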

[2] = system: Key Broadleaf Weed and Crop Species; assay: Post-emergent Test II herbicidal activity (Table 5); assay type: in vivo; settings: post-emergence, 336 h, 14 days after application; for pest or weed control at 70 g/ha: application rate 70 g ai/ha; for pest or weed control at 140 g/ha: application rate 140 g ai/ha
In short: as §1

[3] = CYPES: yellow nutsedge (Cyperus esculentus), read-out: Visual Growth Reduction (%) 14 Days After Application, CYPES
[4] = DIGSA: crabgrass (Digitaria sanguinalis), read-out: Visual Growth Reduction (%) 14 Days After Application, DIGSA
[5] = ECHCG: barnyardgrass (Echinochloa crus-galli), read-out: Visual Growth Reduction (%) 14 Days After Application, ECHCG
[6] = ORYSA: rice (Oryza sativa), crop, read-out: Visual Growth Reduction (%) 14 Days After Application, ORYSA
[7] = SETFA: giant foxtail (Setaria faberi), read-out: Visual Growth Reduction (%) 14 Days After Application, SETFA
[8] = SORVU: grain sorghum (Sorghum vulgare), read-out: Visual Growth Reduction (%) 14 Days After Application, SORVU
[9] = TRZSS (wheat, Triticum aestivum), crop, read-out: Visual Growth Reduction (%) 14 Days After Application, TRZSS
[10] = ZEAMX: maize, corn (Zea mays), crop, read-out: Visual Growth Reduction (%) 14 Days After Application, ZEAMX
[11] = ABUTH: velvetleaf (Abutilon theophrasti), read-out: Visual Growth Reduction (%) 14 Days After Application, ABUTH
[12] = AMARE: redroot pigweed (Amaranthus retroflexus), read-out: Visual Growth Reduction (%) 14 Days After Application, AMARE
[13] = BRSNN: oilseed-rape, canola (Brassica napus), read-out: Visual Growth Reduction (%) 14 Days After Application, BRSNN
[14] = CHEAL: lambsquarters (Chenopodium album), read-out: Visual Growth Reduction (%) 14 Days After Application, CHEAL
[15] = EPHHL: wild poinsettia (Euphorbia heterophylla), read-out: Visual Growth Reduction (%) 14 Days After Application, EPHHL
[16] = HELAN: sunflower (Helianthus annuus), read-out: Visual Growth Reduction (%) 14 Days After Application, HELAN
[17] = VIOTR: wild pansy (Viola tricolor), read-out: Visual Growth Reduction (%) 14 Days After Application, VIOTR

| Compound | pest or weed control at 70 g/ha [1, 3] | pest or weed control at 140 g/ha [1, 3] | pest or weed control at 70 g/ha [1, 4] | pest or weed control at 140 g/ha [1, 4] | pest or weed control at 70 g/ha [1, 5] | pest or weed control at 140 g/ha [1, 5] | pest or weed control at 70 g/ha [1, 6] | pest or weed control at 140 g/ha [1, 6] | pest or weed control at 70 g/ha [1, 7] | pest or weed control at 140 g/ha [1, 7] | pest or weed control at 70 g/ha [1, 8] | pest or weed control at 140 g/ha [1, 8] | pest or weed control at 70 g/ha [1, 9] | pest or weed control at 140 g/ha [1, 9] | pest or weed control at 70 g/ha [1, 10] | pest or weed control at 140 g/ha [1, 10] | pest or weed control at 70 g/ha [2, 11] | pest or weed control at 140 g/ha [2, 11] | pest or weed control at 70 g/ha [2, 12] | pest or weed control at 140 g/ha [2, 12] | further results |
| --- | --- | --- | --- | --- | --- | --- | --- | --- | --- | --- | --- | --- | --- | --- | --- | --- | --- | --- | --- | --- | --- |
| COC(=O)c1nc(-c2ccccc2F)c(F)c(N)c1Cl [Compound 206] | 0 to 29% | 0 to 29% | 0 to 29% | 0 to 29% | 0 to 29% | 0 to 29% | 0 to 29% | 0 to 29% | 0 to 29% | 0 to 29% | 0 to 29% | 0 to 29% | 0 to 29% | 0 to 29% | 0 to 29% | 0 to 29% | 95 to 100% | 95 to 100% | 95 to 100% | 95 to 100% | pest or weed control at 70 g/ha [2, 13]: 75 to 84%; pest or weed control at 140 g/ha [2, 13]: 85 to 94%; pest or weed control at 70 g/ha [2, 14]: 85 to 94%; pest or weed control at 140 g/ha [2, 14]: 85 to 94%; pest or weed control at 70 g/ha [2, 15]: 95 to 100%; pest or weed control at 140 g/ha [2, 15]: 95 to 100%; pest or weed control at 70 g/ha [2, 16]: 60 to 74%; pest or weed control at 140 g/ha [2, 16]: 85 to 94%; pest or weed control at 70 g/ha [2, 17]: 45 to 59%; pest or weed control at 140 g/ha [2, 17]: 60 to 74% |
| COC(=O)c1nc(-c2ccc(C(F)F)cc2)c(F)c(N)c1Cl [Compound 209] | 85 to 94% | 85 to 94% | 45 to 59% | 60 to 74% | 95 to 100% | 95 to 100% | 0 to 29% | 0 to 29% | 45 to 59% | 75 to 84% | 95 to 100% | 95 to 100% | 0 to 29% | 0 to 29% | 75 to 84% | 85 to 94% | 95 to 100% | 95 to 100% | 95 to 100% | 95 to 100% | pest or weed control at 70 g/ha [2, 13]: 85 to 94%; pest or weed control at 140 g/ha [2, 13]: 85 to 94%; pest or weed control at 70 g/ha [2, 14]: 95 to 100%; pest or weed control at 140 g/ha [2, 14]: 95 to 100%; pest or weed control at 70 g/ha [2, 15]: 95 to 100%; pest or weed control at 140 g/ha [2, 15]: 95 to 100%; pest or weed control at 70 g/ha [2, 16]: 95 to 100%; pest or weed control at 140 g/ha [2, 16]: 95 to 100%; pest or weed control at 70 g/ha [2, 17]: 0 to 29%; pest or weed control at 140 g/ha [2, 17]: 0 to 29% |
| C=Cc1c(C(=O)O)nc(-c2ccc(Cl)c(F)c2)c(F)c1N [Compound 214] | 95 to 100% | 95 to 100% | 0 to 29% | 0 to 29% | 95 to 100% | 95 to 100% | 0 to 29% | 45 to 59% | 0 to 29% | 30 to 44% | 75 to 84% | 85 to 94% | 0 to 29% | 0 to 29% | 85 to 94% | 85 to 94% | 95 to 100% | 95 to 100% | 95 to 100% | 95 to 100% | pest or weed control at 70 g/ha [2, 13]: 95 to 100%; pest or weed control at 140 g/ha [2, 13]: 95 to 100%; pest or weed control at 70 g/ha [2, 14]: 95 to 100%; pest or weed control at 140 g/ha [2, 14]: 95 to 100%; pest or weed control at 70 g/ha [2, 15]: 95 to 100%; pest or weed control at 140 g/ha [2, 15]: 95 to 100%; pest or weed control at 70 g/ha [2, 16]: 95 to 100%; pest or weed control at 140 g/ha [2, 16]: 95 to 100%; pest or weed control at 70 g/ha [2, 17]: 75 to 84%; pest or weed control at 140 g/ha [2, 17]: 75 to 84% |
| C=Cc1c(C(=O)OC)nc(-c2ccc(Cl)c(F)c2)c(F)c1N [Compound 215, methyl 4-amino-6-(4-chloro-3-fluorophenyl)-5-fluoro-3-vinylpicolinate] | 95 to 100% | 95 to 100% | 0 to 29% | 0 to 29% | 0 to 29% | 95 to 100% | 0 to 29% | 0 to 29% | 0 to 29% | 0 to 29% | 45 to 59% | 60 to 74% | 0 to 29% | 0 to 29% | 30 to 44% | 45 to 59% | 95 to 100% | 95 to 100% | 95 to 100% | 95 to 100% | pest or weed control at 70 g/ha [2, 13]: 95 to 100%; pest or weed control at 140 g/ha [2, 13]: 95 to 100%; pest or weed control at 70 g/ha [2, 14]: 95 to 100%; pest or weed control at 140 g/ha [2, 14]: 95 to 100%; pest or weed control at 70 g/ha [2, 15]: 95 to 100%; pest or weed control at 140 g/ha [2, 15]: 95 to 100%; pest or weed control at 70 g/ha [2, 16]: 95 to 100%; pest or weed control at 140 g/ha [2, 16]: 95 to 100%; pest or weed control at 70 g/ha [2, 17]: 0 to 29% |
